Legend:
APP/PS1 mice = test: behavioral tests (SDA, NOR, MWM), prevention study in APP/PS1 mice; assay type: in vivo; settings: 6 mg/kg gastric gavage, ages 2 to 8 months
Protocol: APP/PS1 transgenic mice were purchased from Jackson Laboratory and reproduced in the Shenzhen Center for Disease Control and Prevention (Shenzhen, China). Two‐month‐old APP/PS1 mice were divided into four groups: (1) APP/PS1 + Vehicle group; (2) APP/PS1 + MN‐08 (6 mg/kg) group; (3) APP/PS1 + Memantine (Mem, 5 mg/kg) group; (4) APP/PS1 + Donepezil (Done, 1.3 mg/kg, once daily) group; (5) Two‐month‐old C57BL/6J mice as a control group. The APP/PS1 mice were administered drugs twice a day (Done, once daily) by gastric gavage from ages 2 to 8 months for 6 months successively. Control and vehicle groups received equal volumes of saline.
The step-down avoidance (SDA) test was performed as previously described (Zhou et al., 2019). During the training phase, mice were singly placed on a metal floor with electrical stimulation (35 V) for 5 min. After 24 hours, the mouse was positioned on a wooden platform, while the metal floor at the bottom delivered an electrical shock (35 V) for another 5 min. The time for the animal to step down from the wooden platform were recorded as the step-down latency to evaluate retention memory.
Hippocampus-dependent spatial memory was determined by the Morris water maze (MWM) test according to the protocol described in a previous study (Jiao et al., 2015). The MWM test includes a platform training phase and a probe trial phase. An escape platform was placed in a fixed spatial location. During the training phase, each animal was placed at one of four different starting positions and tested four times a day with an interval of approximately 30 min. The animal in the water was immediately removed when it swam to the escape platform within 60 s. […] After the training phase, the probe trial was performed on the sixth day when the platform was removed. The animal was placed in the same starting position in the pool and allowed to move freely for 2 min. The animal swimming track was recorded and analyzed with a digital camera.
The novel object recognition test was performed to assess non-spatial working memory according to previously published protocols (Choi et al., 2011). Firstly, each animal was sequentially placed into a square box (50 × 50 × 50 cm, length × width × height) without any objects for 10 min per day for 2 continuous days to habituate to the environment. Then, two identical objects were placed parallel near one wall of the square box. Animals were placed singly in the box and allowed to explore the objects for 10 min. […] The time each animal took to examine the familiar object and novel object was recorded by digital camera. The discrimination index was calculated according to the following expression: (novel object (s) - familiar object (s))/ (novel object (s) + familiar object (s)). […]

3×Tg‐AD mice = test: Golgi staining of dendritic spines and Western blotting of synaptic markers in 3×Tg-AD mice; assay type: in vivo
Protocol: Triple transgenic 3×Tg‐AD mice were acquired from Jackson Laboratory and fostered in the Shenzhen Center for Disease Control and Prevention (Shenzhen, China). Eight‐month‐old 3×Tg‐AD mice were categorized into six groups: (1) 3×Tg‐AD +Vehicle group; (2) 3×Tg‐AD +MN‐08 (3 mg/kg) group; (3) 3×Tg‐AD +MN‐08 (6 mg/kg) group; (4) 3×Tg‐AD +MN‐08 (12 mg/kg) group; (5) 3×Tg‐AD +Memantine (Mem, 5 mg/kg) group; (6) 3×Tg‐AD +Donepezil (Done, 1.3 mg/kg, once daily) group; (7) Eight‐month‐old B6129SF2/J mice as a control group. MN‐08 and memantine were given twice daily (Done, once daily) by gastric gavage for 4 months from 8 months of age.
Golgi staining was used to determine hippocampal dendritic spine density by a Rapid Golgi Stain Kit (FD Neurotechnologies, Columbia, MD, USA) according to the manufacturer’s instructions. The brain was removed after the behavioral tests and incubated with impregnation solution in the dark at room temperature for 1 week. Impregnation solution was replaced with solution A and stored in the dark for 3 days. Brain sections (100 μm thickness) were placed on gelatin-coated microscope slides and then immersed in ddH2O. Solution B, Solution C, 80 % ethanol and xylene were used for 10 min, sequentially. The dendritic spines of hippocampal neurons were analyzed and counted in a blinded manner from six sections per animal by light microscopy (Olympus, Tokyo, Japan).
Western blotting analysis was performed as previously described with minor modifications (Huang, Li, & Nan, 2017). Proteins were extracted from hippocampal tissue and their concentrations determined by the BCA protein assay kit (Fdbio science, Hangzhou, China). The protein (20 μg) was separated on a 12% SDS-PAGE gel and then transferred to PVDF membranes. The membranes were blocked using 5 % nonfat dry milk for 2 h. […] Quantitative analysis of protein bands was conducted by the Carestream system (Carestream Health, Inc, USA).

SMILES	escape latency in Morris water maze test (APP/PS1 mice)	number of crossings in Morris water maze test (APP/PS1 mice)	discrimination index in novel object recognition (NOR) test (APP/PS1 mice; vs vehicle)	latency in step‐down avoidance (SDA) test (APP/PS1 mice; vs vehicle)	reduction of dendritic spines (hippocampus CA1, Golgi staining) (3×Tg‐AD mice; MN‐08 6 mg/kg)	expression of synaptic markers (SYP, PSD95, SYN I, SYN II, NR2A) (3×Tg‐AD mice; MN‐08 6 mg/kg, Western blot)	reduction of dendritic spines (hippocampus CA1, Golgi staining) (3×Tg‐AD mice; memantine 5 mg/kg)
CCC12CC3CC(N)(C1)CC(CO[N+](=O)[O-])(C3)C2 (stereo not shown) [MN‐08]	markedly shortened	increased	significantly increased	significantly increased	markedly reversed	significantly increased	–
CC12CC3CC(C)(C1)CC(N)(C3)C2 [memantine, 1‐amino‐3,5‐dimethyladamantane]	–	–	–	–	–	–	markedly reversed

Source: PMC8208785, “Therapeutic efficacy of novel memantine nitrate MN‐08 in animal models of Alzheimer’s disease” (Aging Cell, 2021)
